From US12703706B2, “Anthelmintic compounds comprising a thienopyridine structure” (Intervet Inc., priority 2020, dated 2026) come the findings set out here.

The subject of experiment [1] is Haemonchus contortus. The experiment can be described thus: In vivo efficacy against Haemonchus contortus in jirds. The conditions noted are these: in Meriones unguiculatus, 72 h, read-out: reduction of the Haemonchus contortus count.
Description: In Vivo Assay: Efficacy Against Haemonchus contortus in Jirds
The jirds were orally infected with approximately 1500 third-stage larvae of Haemonchus contortus. Ten days after infection, the jirds in the treatment groups were treated once either orally or subcutaneously with compounds at a dose of 10 mg per kg bodyweight. For treatment, compounds were dissolved in a mixture of 10% Transcutol, 10% Cremophor EL and 80% physiological sodium chloride solution. Three days after treatment, the jirds were necropsied, and the larvae burden in the stomach was determined. The efficacy was defined as the reduction of the mean larvae count in the infected jirds of the treatment group in comparison to the infected jirds in an untreated control group (negative control).
The target of experiment [2] is human Maxi K channel (BK channel), KCNMA1 (KCa1.1) and beta1 (KCNMB1) subunits (Homo sapiens, UniProt Q12791).
human Maxi K channel (BK channel), KCNMA1 (KCa1.1) and beta1 (KCNMB1) subunits, sequence (Q12791 1-1178 isoform Q12791-5): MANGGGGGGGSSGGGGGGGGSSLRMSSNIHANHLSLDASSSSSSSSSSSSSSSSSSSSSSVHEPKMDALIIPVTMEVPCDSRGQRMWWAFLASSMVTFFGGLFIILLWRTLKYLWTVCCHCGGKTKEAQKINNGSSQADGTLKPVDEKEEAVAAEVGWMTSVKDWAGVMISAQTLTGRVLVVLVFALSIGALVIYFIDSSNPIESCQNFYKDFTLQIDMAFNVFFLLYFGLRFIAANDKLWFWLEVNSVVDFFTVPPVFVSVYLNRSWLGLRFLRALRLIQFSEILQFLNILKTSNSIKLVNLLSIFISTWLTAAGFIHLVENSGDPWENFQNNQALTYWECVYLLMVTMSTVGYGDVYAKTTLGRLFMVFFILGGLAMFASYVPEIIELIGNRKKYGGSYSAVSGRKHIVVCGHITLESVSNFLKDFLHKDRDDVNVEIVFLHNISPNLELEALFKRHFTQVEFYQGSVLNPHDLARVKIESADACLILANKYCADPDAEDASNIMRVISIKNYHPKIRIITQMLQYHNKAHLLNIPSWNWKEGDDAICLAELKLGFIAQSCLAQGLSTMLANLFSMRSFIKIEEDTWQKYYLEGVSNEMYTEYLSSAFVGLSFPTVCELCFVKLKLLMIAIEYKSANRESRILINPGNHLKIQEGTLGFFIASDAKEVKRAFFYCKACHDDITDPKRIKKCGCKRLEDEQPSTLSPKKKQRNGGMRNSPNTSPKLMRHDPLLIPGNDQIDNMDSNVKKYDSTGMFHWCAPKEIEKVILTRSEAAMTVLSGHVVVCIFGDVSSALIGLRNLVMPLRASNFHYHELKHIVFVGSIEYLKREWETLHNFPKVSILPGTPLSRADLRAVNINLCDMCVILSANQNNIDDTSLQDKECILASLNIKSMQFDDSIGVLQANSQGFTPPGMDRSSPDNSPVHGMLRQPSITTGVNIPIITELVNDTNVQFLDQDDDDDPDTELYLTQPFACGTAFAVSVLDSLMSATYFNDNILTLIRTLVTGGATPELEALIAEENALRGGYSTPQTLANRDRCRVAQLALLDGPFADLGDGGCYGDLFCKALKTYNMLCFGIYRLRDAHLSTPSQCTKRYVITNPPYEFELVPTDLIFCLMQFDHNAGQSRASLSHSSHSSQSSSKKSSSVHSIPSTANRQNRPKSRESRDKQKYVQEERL
human Maxi K channel (BK channel), KCNMA1 (KCa1.1) and beta1 (KCNMB1) subunits, sequence (Q16558 whole entry partner): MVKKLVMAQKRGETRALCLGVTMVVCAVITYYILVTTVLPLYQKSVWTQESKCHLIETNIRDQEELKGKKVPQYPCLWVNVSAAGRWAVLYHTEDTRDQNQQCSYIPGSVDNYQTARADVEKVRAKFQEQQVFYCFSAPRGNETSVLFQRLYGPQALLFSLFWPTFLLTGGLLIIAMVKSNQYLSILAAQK
Description: In Vitro Assay: Agonistic Activity at the Human Maxi K Channel (BK Channel)
A CHO K1 cell line was stably transfected with the KCNMA1 (KCa1.1, U11058) and betal (KCNMB1) subunits of the human Maxi K channel (Ponte et al, Molecular Pharmacology 2012, 81(4), 567-577).
Cells were seeded in microtiter plates (black 384-well MTP, clear bottom) in a concentration of 20,000 cells/well in 25 μl medium and cultured for 20 to 24 hours at 37° C. and 5% CO2. After incubation, 25 μl of FMP-dye Blue-Tyrode's was added to each well and incubated at room temperature for 30 min. Ten minutes after addition of 12.5 μl compound solution, the plates are transferred to the FLIPR for measurement.
For the membrane potential measurements, plates were placed in the FLIPR Penta (Molecular Devices). The baseline measurement of the fluorescence was stared for 20 sec (Exc. 510-545 nm, Emm. 565-625 nm). Potential channel opening measurement was started by addition of 25 μl KCl-Tyrode (final assay concentration of the KCl-Tyrode: 70 mM KCl, 2 mM CaCl2, 1 mM MgCl2, 0.8 mM NaH2PO4, 5 mM Glucose, 28 mM Hepes, pH 7.4, including the voltage sensitive dye). The complete measurement takes 150 s.
EC50 values were determined in triplicate utilizing compound dilution series. The data were determined at least in two independent tests. The data were proceeded by using the ActivityBase XE Runner software (IDBS) for curve fitting and calculation of the half-maximal effective concentration.

SMILES strings stand for the structures.

In the case of `CN(C)c1c(C(=O)N[C@H]2CCOc3ccccc32)cnc2c(-c3cccc(Cl)c3Cl)csc12` [Compound 10], the inhibition in vivo at 10 mg/kg in experiment [1] was not below 80%. The half-maximal effective concentration (EC50) in experiment [2] is more than 30 µM.
`Cc1sc2c(N3CCOCC3)c(C(=O)N[C@H]3CCOc4ccccc43)cnc2c1-c1cc(Cl)cc(Cl)c1` [Compound 68]: the inhibition in vivo at 10 mg/kg in experiment [1] was not below 80%. The half-maximal effective concentration (EC50) in experiment [2] was more than 30 µM.
On the same counts, the results for `Cc1sc2c(N3CC(F)(F)C3)c(C(=O)N[C@H]3CCOc4ccccc43)cnc2c1-c1cccc(Cl)c1Cl` [Compound 56] are not below 80% and more than 30 µM.
`O=C(N[C@H]1CCOc2ccccc21)c1cnc2c(-c3cccc(F)c3F)csc2c1N1CCOCC1` [Compound 24]: in experiment [2], the half-maximal effective concentration (EC50) is more than 30 µM.
In turn, `O=C(N[C@H]1CCc2ccccc21)c1cnc2c(-c3cccc(Cl)c3Cl)csc2c1N1CC(F)(F)C1` [Compound 39] yielded an EC50 in experiment [2] of more than 30 µM.
For `O=C(N[C@H]1CCOc2ccccc21)c1cnc2c(-c3cccc(F)c3F)csc2c1N1CC(F)C1` [Compound 91], in experiment [2], the half-maximal effective concentration (EC50) is more than 30 µM.
As for `Cc1sc2c(N3CCOCC3)c(C(=O)N[C@H]3CCCc4ccccc43)cnc2c1-c1cc(Cl)cc(Cl)c1` [Compound 67], the EC50 in experiment [2] is more than 30 µM.
Consider `O=C(N[C@H]1CCOc2ccccc21)c1cnc2c(-c3cc(F)cc(F)c3)csc2c1N1CC(F)C1` [Compound 92], for which, in experiment [2], the EC50 was more than 30 µM.
Same read-out and setting: then `O=C(N[C@H]1CCOc2ccccc21)c1cnc2c(-c3cccc(C(F)(F)F)c3)csc2c1NC1CC1` [Compound 89], with more than 30 µM; and `O=C(N[C@H]1CCc2ccccc21)c1cnc2c(-c3cc(Cl)cc(Cl)c3)csc2c1N1CC(F)(F)C1` [Compound 77], with more than 30 µM; and `Cc1sc2c(N(C)C)c(C(=O)N[C@H]3CCc4ccccc43)cnc2c1-c1cccc(Cl)c1Cl` [Compound 34], with more than 30 µM.
In turn, `Cc1sc2c(N(C)C)c(C(=O)N[C@H]3CCCc4ccccc43)cnc2c1-c1cc(Cl)cc(Cl)c1` [Compound 38] showed an EC50 in experiment [2] of more than 30 µM.
Still for that read-out and setting: under `Cc1sc2c(N(C)C)c(C(=O)Nc3cccc4ccccc34)cnc2c1-c1cc(Cl)cc(Cl)c1` [Compound 54] stands more than 30 µM.
`Cc1sc2c(N3CC(F)(F)C3)c(C(=O)N[C@H]3CCc4ccccc43)cnc2c1-c1cccc(Cl)c1Cl` [Compound 57]: the EC50 in experiment [2] was more than 30 µM.
In experiment [2], `CN(C)c1c(C(=O)N[C@H]2CCCc3ccccc32)cnc2c(-c3cccc(Cl)c3Cl)csc12` [Compound 21] returned an EC50 of more than 30 µM.
In experiment [2], `O=C(N[C@H]1CCCc2ccccc21)c1cnc2c(-c3cccc(Cl)c3Cl)csc2c1N1CCOCC1` [Compound 13] had an EC50 of 5 to 10 µM.
On the same count and under the same terms, under `O=C(N[C@H]1CCOc2ccccc21)c1cnc2c(-c3cc(Cl)cc(Cl)c3)csc2c1N1CCOCC1` [Compound 1] stands more than 30 µM.
Regarding `Cc1sc2c(N3CC(F)C3)c(C(=O)N[C@H]3CCOc4ccccc43)cnc2c1-c1cc(Cl)cc(Cl)c1` [Compound 65], the inhibition in vivo at 10 mg/kg in experiment [1] is not below 80%. Further, in experiment [2], the 50% effective concentration (EC50) is more than 30 µM.
On the same counts, the results for `Cc1sc2c(N3CCOCC3)c(C(=O)N[C@H]3CCOc4ccccc43)cnc2c1-c1cccc(Cl)c1Cl` [Compound 72] are not below 80% and more than 30 µM.
`Cc1sc2c(N3CC(F)C3)c(C(=O)N[C@H]3CCOc4ccccc43)cnc2c1-c1cccc(Cl)c1Cl` [Compound 62]: the inhibition in vivo at 10 mg/kg in experiment [1] was not below 80%. This molecule also came in with an EC50 in experiment [2] of more than 30 µM.
For the molecule `Cc1sc2c(N(C)C)c(C(=O)N[C@H]3CCOc4ccccc43)cnc2c1-c1cc(Cl)cc(Cl)c1` [Compound 53], the inhibition in vivo at 10 mg/kg in experiment [1] is not below 80%. The EC50 in experiment [2] is more than 30 µM.
On to `O=C(N[C@H]1CCOc2ccccc21)c1cnc2c(-c3cc(Cl)cc(Cl)c3)csc2c1N1CC(F)(F)C1` [Compound 76], for which the EC50 in experiment [2] was more than 30 µM.
Molecule `CN(C)c1c(C(=O)NC2COc3ccccc32)cnc2c(-c3cccc(Cl)c3Cl)csc12` (stereo not shown) [Compound 78] had a concentration for a half-maximal effect (EC50) in experiment [2] of more than 30 µM.
On the same count and under the same terms, under `Cc1sc2c(N3CC(F)C3)c(C(=O)N[C@H]3CCc4ccccc43)cnc2c1-c1cccc(Cl)c1Cl` [Compound 63] stands more than 30 µM; under `O=C(N[C@H]1CCOc2ccccc21)c1cnc2c(-c3cc(F)cc(F)c3F)csc2c1N1CC(F)(F)C1` [Compound 40], more than 30 µM.
Turning to `O=C(N[C@@H]1COc2ccccc21)c1cnc2c(-c3cc(Cl)cc(Cl)c3)csc2c1N1CCOCC1` [Compound 100], the 50% effective concentration (EC50) in experiment [2] is more than 30 µM.
Still for that read-out and setting: under `Cc1sc2c(N3CCOCC3)c(C(=O)N[C@H]3CCOc4ccccc43)cnc2c1-c1cc(F)cc(F)c1` [Compound 107] stands more than 30 µM; under `CN1CCN(c2c(C(=O)N[C@H]3CCCc4ccccc43)cnc3c(-c4cc(Cl)cc(Cl)c4)csc23)CC1` [Compound 18], more than 30 µM.
As for `Cc1sc2c(N(C)C)c(C(=O)N[C@H]3CCOc4ccccc43)cnc2c1-c1cc(F)cc(F)c1F` [Compound 102], the inhibition in vivo at 10 mg/kg in experiment [1] is not below 80%. Also, the EC50 in experiment [2] was more than 30 µM.
In experiment [2], `Cc1sc2c(N3CCOCC3)c(C(=O)N[C@H]3CCc4ccccc43)cnc2c1-c1cccc(OC(F)(F)F)c1` [Compound 113] gave a concentration giving a half-maximal response (EC50) of more than 30 µM.
`O=C(N[C@H]1CCOc2ccccc21)c1cnc2c(-c3cc(F)cc(F)c3)csc2c1N1CCC1` [Compound 83] returned a concentration for a half-maximal effect (EC50) in experiment [2] of more than 30 µM.
As to `Cc1sc2c(N3CC(F)(F)C3)c(C(=O)N[C@H]3CCc4ccccc43)cnc2c1-c1cc(Cl)cc(Cl)c1` [Compound 60], the 50% effective concentration (EC50) in experiment [2] was more than 30 µM.
As for `O=C(N[C@H]1CCc2ccccc21)c1cnc2c(-c3cccc(Cl)c3Cl)csc2c1N1CCOCC1` [Compound 6], the concentration giving a half-maximal response (EC50) in experiment [2] was 5 to 10 µM.
Still for that read-out and setting: then `O=C(N[C@H]1CCOc2ccccc21)c1cnc2c(-c3cc(F)cc(F)c3F)csc2c1NCCO` [Compound 94], with more than 30 µM.
The same measure, in the same setting: under `Cc1sc2c(N3CC(F)(F)C3)c(C(=O)N[C@H]3CCOc4ccccc43)cnc2c1-c1cc(Cl)cc(Cl)c1` [Compound 59] stands more than 30 µM; under `Cc1cccc(-c2csc3c(N4CCOCC4)c(C(=O)N[C@H]4CCOc5ccccc54)cnc23)c1C` [Compound 44], more than 30 µM.
With `CN(CCO)c1c(C(=O)N[C@H]2CCOc3ccccc32)cnc2c(-c3cc(F)cc(F)c3F)csc12` [Compound 95], in experiment [2], the concentration for a half-maximal effect (EC50) was more than 30 µM.
Molecule `Cc1sc2c(N3CC(F)C3)c(C(=O)N[C@H]3CCc4ccccc43)cnc2c1-c1cc(Cl)cc(Cl)c1` [Compound 66] showed an EC50 in experiment [2] of more than 30 µM.
Regarding `O=C1CCN(c2c(C(=O)N[C@H]3CCOc4ccccc43)cnc3c(-c4cc(Cl)cc(Cl)c4)csc23)CC1` [Compound 52], the EC50 in experiment [2] is more than 30 µM.
In turn, `CN(C)c1c(C(=O)N[C@H]2CCOc3ccccc32)cnc2c(-c3cccc(C(F)(F)F)c3)csc12` [Compound 47] showed an EC50 in experiment [2] of more than 30 µM.
In experiment [2], `C[C@H](NC(=O)c1cnc2c(-c3cccc(Cl)c3Cl)csc2c1N(C)C)c1ccccc1` [Compound 11] came in with an EC50 of more than 30 µM.
Take `Cc1sc2c(N3CC(F)C3)c(C(=O)N[C@H]3CCCc4ccccc43)cnc2c1-c1cc(Cl)cc(Cl)c1` [Compound 64]: in experiment [2], the EC50 was more than 30 µM.
In experiment [2], `O=C(N[C@H]1CCOc2ccccc21)c1cnc2c(-c3cccc(C(F)(F)F)c3)csc2c1N1CCOCC1` [Compound 42] showed an EC50 of more than 30 µM.
The same measure, in the same setting: then `O=C(N[C@H]1CCOc2ccccc21)c1cnc2c(-c3cc(F)cc(F)c3)csc2c1NC1CC1` [Compound 86], with more than 30 µM.
